{"source": "patent US20090005384A1", "about": "“Method for Producing Adsorptive Porous Body” (Kowa Co., Ltd, priority 2005, published 2009)", "key": {"[1]": {"assay": "Adsorption test to porous material", "format": "physicochemical", "conditions": "for Amount of adsorbed Compound A: shaken for two hours", "method": "To a solution prepared by completely dissolving 1.5 mg of Compound A in 1.5 mL of dichloromethane, 15 mg of porous material (light anhydrous silicic acid (Sylysia 350, produced by Fuji Silysia Chemical Co., Ltd.) or silicon dioxide (Sylysia 530, produced by Fuji Silysia Chemical Co., Ltd.) was dispersed, and this mixture was shaken for two hours using Roter RT-50 (TAITEC) and an amount of Compound A which adsorbed simply to the light anhydrous silicic acid or silicon dioxide (μg/mg porous material) was calculated by measuring the absorbance (280 nm) of a filtrate obtained by filtering with a membrane filter (0.45 μm PTFE). The amount of Compound A which adsorbed simply to the light anhydrous silicic acid or silicon dioxide ([…] porous material) was calculated by the following computational expression.\nConcentration of Compound A in the filtrate (μg/mL)=ABS÷Slope of analytical curve×Dilution ratio\nHere, ABS represents the absorbance.\nAmount of adsorbed Compound A (g/mg porous material)=(Concentration of Compound A before the porous material was dispersed (g/mL)−Concentration of Compound A in the filtrate (g/mL))×Volume of Compound A solution (mL)÷Mass of porous material (mg)\nCalculation was also conducted using ethanol in place of dichloromethane as a comparison."}, "[2]": {"conditions": "cited from earlier work"}, "[3]": {"assay": "Differential scanning calorimetry analysis", "format": "physicochemical", "conditions": "when dichloromethane was used"}, "[4]": {"system": "interleukin-lp production", "conditions": "known from Patent Document 1; cited from earlier work"}}}
{"smiles": "CSc1ccc(-c2nn(Cc3ccccc3)c(=O)cc2-c2ccc(Cl)cc2)cc1", "note": "[Compound A, 2-benzyl-5-(4-chlorophenyl)-6-[4-(methylthio)phenyl]-2H-pyridazin-3-one]", "values": [{"measurement": "Amount of adsorbed Compound A", "setting": "[1]; Dichloromethane, light anhydrous silicic acid (Sylysia 350)", "result": 17.6, "unit": "μg/mg porous material"}, {"measurement": "Amount of adsorbed Compound A", "setting": "[1]; Dichloromethane, silicon dioxide (Sylysia 530)", "result": 24.8, "unit": "μg/mg porous material"}, {"measurement": "Amount of adsorbed Compound A", "setting": "[1]; Ethanol, light anhydrous silicic acid (Sylysia 350)", "result": 0.0, "unit": "μg/mg porous material"}, {"measurement": "Amount of adsorbed Compound A", "setting": "[1]; Ethanol, silicon dioxide (Sylysia 530)", "result": 0.0, "unit": "μg/mg porous material"}, {"measurement": "Adsorption of Compound A to the porous material (in words)", "setting": "[1]; dichloromethane, light anhydrous silicic acid", "result": "adsorbed"}, {"measurement": "Adsorption of Compound A to the porous material (in words)", "setting": "[1]; dichloromethane, silicon dioxide", "result": "adsorbed"}, {"measurement": "Adsorption of Compound A to the porous material (in words)", "setting": "[1]; ethanol, light anhydrous silicic acid", "result": "did not adsorb"}, {"measurement": "Adsorption of Compound A to the porous material (in words)", "setting": "[1]; ethanol, silicon dioxide", "result": "did not adsorb"}, {"measurement": "Solubility in water", "setting": "[2]", "result": "extremely insoluble"}, {"measurement": "Solid state of Compound A", "setting": "[3]", "result": "existed in amorphous state"}, {"measurement": "interleukin-lp production suppressive effect", "setting": "[4]", "result": "excellent"}]}
